Results: patent US12721845B2, “Therapeutic or prophylactic agent for cachexia accompanied by ghrelin resistance” (Toray Industries, Inc., priority 2021, dated 2026)
Structures can show the parent of a compound that is named as a salt.

Legend:
[1] = system: tumor-bearing mouse model (non-small cell lung cancer model accompanied by ghrelin resistance); assay: Example 1: food intake and body weight in tumor-bearing mouse model (A549 cells transplanted into nude mice); format: in vivo; conditions: for body weight after 5-day administration / cumulative food intake in the period of administration: vs distilled water group
Description: Using tumor-bearing model animals where adenocarcinomic human alveolar basal epithelial cells, A549 cells, were transplanted into nude mice, examination was performed about drug efficacy of Compound 1 on the food intake and the body weight.
(§1) Subculture of A549 cells was performed using a 10% FBS-containing RPMI1640 culture medium. In evaluation of drug efficacy, 6-week-old female BALB/C slc/nu/nu mice (Japan SLC, Inc.) were purchased, and were used after habituated for one week. Tumor-bearing model animals were prepared as follows. Specifically, 2.5×10^7 cells of A549 cells were transplanted to the right abdominal region of each mouse by subdermal administration. On Day 43 from the cell transplantation, the mice were divided into groups to have an equal averaged tumor volume.
The effects of a variety of compounds on food intake and body weight were examined as follows. Specifically, for 5 days from Day 44 to Day 48 from the cell transplantation, the compounds were orally administered daily, and the food intake and the body weight were measured at the same time. The doses of Compound 1 were 0.25 mg/kg (6 animals), 0.5 mg/kg (6 animals), and 1 mg/kg (6 animals). To verify that the model animals are in a ghrelin resistant state, anamorelin hydrochloride (MedChemExpress) was used at 30 mg/kg (6 animals). The food intake was calculated by subtracting the weight of feed on the previous day of measurement from the weight of feed on the day of measurement.
In FIG. 1, the ordinate represents the cumulative food intake in the period of administration of the compounds (from the start of administration to the day next to the final day of administration). In FIG. 2, the ordinate represents the percentage of changes in body weight on Day 6 from the start of administration of the compounds (the day next to the final day of administration) (after 5-day administration) (relative to the body weight measured immediately before the first administration of the compound designated as 100%). In the abscissas of FIGS. 1 and 2, “Distilled water” represents distilled water-treated group, “Compound 1 0.25” represents Compound 1-treated group at 0.25 mg/kg, “Compound 1 0.5” represents Compound 1-treated group at 0.5 mg/kg, “Compound 1 1” represents Compound 1-treated group at 1 mg/kg, and “Anamorelin” represents anamorelin hydrochloride-treated group at 30 mg/kg. In FIGS. 1 and 2, the mark “*” represents a statistical significance (*: P<0.05) in comparison with distilled water-treated group (Dunnett's multiple test).

[2] = system: tumor-bearing mouse model (non-small cell lung cancer model accompanied by ghrelin resistance); assay: Example 2: food intake and body weight in tumor-bearing mouse model (A549 cells transplanted into nude mice); format: in vivo
Description: Using tumor-bearing model animals where adenocarcinoma human alveolar basal epithelial cells, A549 cells, were transplanted into nude mice, examination was performed about drug efficacy of Compounds 1 and 2 on the food intake and the body weight.
as §1, with “7-week old” for “6-week-old”
The effects of a variety of compounds on food intake and body weight were examined as follows. Specifically, for 5 days from Day 44 to Day 48 from the cell plantation, Compound 2 was intraperitoneally administered daily, Compound 1 and anamorelin hydrochloride were orally administered daily, and the amount of feed and the body weight were measured at the same time. Compound 2 was used at 1 mg/kg (9 animals), and Compound 1 was used at 0.25 mg/kg (9 animals), which is the lowest dose to exert drug efficacy. To verify that the model animals are in a ghrelin resistant state, anamorelin hydrochloride was used at 30 mg/kg (9 animals) herein. The food intake was calculated by subtracting the weight of feed on the previous day of measurement from the weight of feed on the day of measurement.
In FIG. 3, the ordinate represents the cumulative food intake in the period of administration of the compounds (from the start of administration to the day next to the final day of administration). In FIG. 4, the ordinate represents the percentage of changes in body weight on Day 6 from the start of administration of the compounds (the day next to the final day of administration) (after 5-day administration) (relative to the body weight measured immediately before the first administration of the compound designated as 100%). In the abscissas of FIGS. 3 and 4, “Normal saline” represents a group treated intraperitoneally with normal saline, “Compound 2” represents a group treated intraperitoneally with Compound 2 at 1 mg/kg, “Compound 1” represents a group treated orally with Compound 1 at 0.25 mg/kg, and “Aanamorelin” represents a group treated orally with anamorelin hydrochloride at 30 mg/kg. In FIGS. 3 and 4, the mark “*” represents a statistical significance (*: P<0.05) compared to the group treated with normal saline (Dunnett's multiple test).

[3] = system: model of non-small cell lung cancer to which A549 cells have been transplanted subcutaneously; conditions: cited from earlier work
normal animal = conditions: anamorelin hydrochloride 30 mg/kg; cited from earlier work
[4] = Compound 1 0.25 mg/kg oral daily for 5 days, compared with Compound 2 1 mg/kg i.p.
[5] = Compound 2 1 mg/kg intraperitoneal daily for 5 days, vs normal saline group, Dunnett P<0.05
[6] = anamorelin hydrochloride 30 mg/kg oral daily for 5 days

Compound: CN(C(=O)/C=C/c1ccoc1)[C@@H]1CC[C@@]2(O)[C@H]3Cc4ccc(O)c5c4[C@@]2(CCN3CC2CC2)[C@H]1O5 [Compound 1, (−)-17-(cyclopropylmethyl)-3,14β-dihydroxy-4,5α-epoxy-6β-[N-methyl-trans-3-(3-furyl)acrylamide]morphinan hydrochloride]
- body weight after 5-day administration ([1]; Compound 1 0.25 mg/kg oral daily for 5 days): tendency of an increase in body weight
- body weight after 5-day administration ([1]; Compound 1 0.5 mg/kg oral daily for 5 days, Dunnett P<0.05): statistically significant increasing effect in body weight
- body weight after 5-day administration ([1]; Compound 1 1 mg/kg oral daily for 5 days, Dunnett P<0.05): statistically significant increasing effect in body weight
- cumulative food intake in the period of administration ([1]; Compound 1 0.25, 0.5 and 1 mg/kg oral daily for 5 days (Day 44-48 from transplantation), Dunnett P<0.05): statistically significant increasing effect in food intake
- lowest dose to exert drug efficacy ([1]; oral, tumor-bearing mouse model): 0.25 mg/kg
- body weight after 5-day administration [2, 4]: increasing effect in body weight higher than those exhibited by Compound 2
- cumulative food intake in the period of administration [2, 4]: increasing effect in food intake and the increasing effect in body weight higher than those exhibited by Compound 2

Compound: CC(C)C[C@@H](NC(=O)[C@@H](Cc1ccccc1)NC(=O)[C@H](N)Cc1ccccc1)C(=O)N[C@H](CCCCN)C(=O)N1CCC(N)(C(=O)O)CC1 [Compound 2, 4-amino-1-[(2R)-6-amino-2-[(2R)-2-[(2R)-2-[(2R)-2-amino-3-phenylpropanamide]-3-phenylpropanamide]-4-methylpentanamide]hexanoyl]piperidine-4-carboxylic acid]
- body weight after 5-day administration [2, 5]: statistically significant increasing effect in body weight
- cumulative food intake in the period of administration [2, 5]: statistically significant increasing effect in food intake

Compound: CN(C)N(C)C(=O)[C@@]1(Cc2ccccc2)CCCN(C(=O)[C@@H](Cc2c[nH]c3ccccc23)NC(=O)C(C)(C)N)C1 [anamorelin hydrochloride, reference compound]
- body weight after 5-day administration [1, 6]: any statistically significant increasing effect in food intake or increasing effect in body weight was not observed
- cumulative food intake in the period of administration [1, 6]: any statistically significant increasing effect in food intake or increasing effect in body weight was not observed
- therapeutic effects on cachexia ([2]; anamorelin hydrochloride 30 mg/kg oral, administered from Day 44 after cell transplantation (Examples 1 and 2)): no therapeutic effects were observed on cachexia
- body weight ([3]; anamorelin hydrochloride 30 mg/kg, A549 cells transplanted subcutaneously in the abdominal region): increase in body weight
- therapeutic effects on cachexia ([3]; anamorelin hydrochloride administered on Day 23 from cell transplantation): achieved therapeutic effects on cachexia
- body weight (normal animal): increase in body weight
